# In PMC9269301, “Phytochemical Analysis, Antioxidant, Antimicrobial, and Cytotoxic Activity of Different Extracts of Xanthoparmelia stenophylla Lichen from Stara Planina, Serbia” (Plants, 2022):
# Marks after values point to notes of the source that are not given here.
# Key:
# [1] = test system: S. enterica (isolate); test: microbe, parasite or virus in culture; format: cell-based, Salmonella enterica; conditions: Salmonella enterica, S. enterica, antibiotics
# Description: (§1) The tested methanol, acetone, and n-hexane extracts, as well as the component (usnic acid) of X. stenophylla, were dissolved in 10% dimethyl sulfoxide (DMSO) and then diluted into the nutrient liquid medium. DMSO was obtained from Acros Organics (Fair Lawn, NJ, USA). Resazurin was obtained from Alfa Aesar GmbH & Co. (KG, Karlsruhe, Germany).
# (§2) The antimicrobial activity of the extracts and components was tested against 19 microorganisms. The experiment involved 15 strains of bacteria (i.e., 6 standard strains: Staphylococcus aureus ATCC 6538, Bacillus subtilis ATCC 6633, Proteus mirabilis ATCC 12453, Pseudomonas aeruginosa ATCC 27853, Klebsiella pneumoniae ATCC 70063, and Escherichia coli ATCC 25922; 9 isolates: Staphylococcus aureus, Escherichia coli, Salmonella enterica, Salmonella Typhimurium, Proteus mirabilis, Klebsiella pneumoniae, Pseudomonas aeruginosa, Bacillus subtilis, and Bacillus cereus). In addition, four fungal strains (i.e., two standard strains: Candida albicans ATCC 10231 and Aspergillus niger ATCC 16888; two isolates: Saccharomyces cerevisiae and Candida albicans) were tested. All isolates were a generous gift from the Institute of Public Health, Kragujevac. The other microorganisms were provided from the collection held by the Microbiology Laboratory Faculty of Science, University of Kragujevac.
# (§3) The bacterial suspensions were prepared by the direct colony method. The turbidity of the initial suspension was adjusted using a densitometer (DEN-1, BioSan, Riga, Latvia). When adjusted to the turbidity of the 0.5 McFarland’s standard (Andrews, 2005) the bacteria suspension contained approximately 10^8 colony-forming units (CFU)/mL, and the suspension of yeast contained 10^6 CFU/mL; 1:100 dilutions of the initial suspension were additionally prepared in sterile 0.85% saline. The suspensions of fungal spores were prepared by gentle stripping of spores from slopes with growing mycelia. The resulting suspensions were 1:1000 diluted in sterile 0.85% saline.
# (§4) Antimicrobial activity was tested by determining the minimum inhibitory concentrations (MICs) and minimum microbicidal concentrations (MBCs) using the microdilution plate method with resazurin [56]. The 96-well plates were prepared by dispensing 100 μL of Mueller–Hinton broth for bacteria and Sabouard broth for fungi into each well. A 10 μL aliquot from the stock solution of the tested extract or component was added to the first row of the plate. Then, two-fold serial dilutions were performed using a multichannel pipette. The obtained concentration range was from 10 to 0.08 mg/mL. The method is described in detail in [76].
# (§5) Each test included growth control and sterility control.
# (§6) Minimum microbicidal concentrations were determined by plating 10 μL of samples from wells where no indicator color change or no mycelia growth was recorded on a nutrient agar medium. At the end of the incubation period, the lowest concentration with no growth (no colony) was defined as the minimum microbicidal concentration.
# [2] = test system: S. aureus ATCC 6538; test: Microdilution with resazurin, antibacterial; format: cell-based, Staphylococcus aureus; conditions: Staphylococcus aureus, ATCC6538, antibiotics
# Description: as §1, §2, §3, §4, §5, §6
# [3] = test system: S. aureus (isolate); test: Microdilution with resazurin, antibacterial; format: cell-based, Staphylococcus aureus; conditions: Staphylococcus aureus, antibiotics
# Description: as §1, §2, §3, §4, §5, §6
# [4] = test system: P. mirabilis (isolate); test: Microdilution with resazurin, antibacterial; format: cell-based, Proteus mirabilis; conditions: Proteus mirabilis, antibiotics
# Description: as §1, §2, §3, §4, §5, §6
# [5] = test system: P. mirabilis ATCC 12453; test: Microdilution with resazurin, antibacterial; format: cell-based, Proteus mirabilis; conditions: Proteus mirabilis, ATCC12453, antibiotics
# Description: as §1, §2, §3, §4, §5, §6
# [6] = test system: B. cereus (isolate); test: Microdilution with resazurin, antibacterial; format: cell-based, Bacillus cereus; conditions: Bacillus cereus, antibiotics
# Description: as §1, §2, §3, §4, §5, §6
# [7] = test system: K. pneumoniae ATCC 70063; test: Microdilution with resazurin, antibacterial; format: cell-based, Klebsiella pneumoniae; conditions: Klebsiella pneumoniae, ATCC70063, antibiotics
# Description: as §1, §2, §3, §4, §5, §6
# [8] = test system: K. pneumoniae (isolate); test: Microdilution with resazurin, antibacterial; format: cell-based, Klebsiella pneumoniae; conditions: Klebsiella pneumoniae, antibiotics
# Description: as §1, §2, §3, §4, §5, §6
# [9] = test system: E. coli (isolate); test: Microdilution with resazurin, antibacterial; format: cell-based, Escherichia coli; conditions: Escherichia coli, antibiotics
# Description: as §1, §2, §3, §4, §5, §6
# [10] = test system: E. coli ATCC 25922; test: Microdilution with resazurin, antibacterial; format: cell-based, Escherichia coli; conditions: Escherichia coli, ATCC25922, antibiotics
# Description: as §1, §2, §3, §4, §5, §6
# [11] = test system: S. Typhimurium (isolate); test: Microdilution with resazurin, antibacterial; format: cell-based, Salmonella Typhimurium; conditions: Salmonella enterica, antibiotics
# Description: as §1, §2, §3, §4, §5, §6
# [12] = test system: B. subtilis ATCC 6633; test: Microdilution with resazurin, antibacterial; format: cell-based, Bacillus subtilis; conditions: Bacillus subtilis, ATCC6633, antibiotics
# Description: as §1, §2, §3, §4, §5, §6
# [13] = test system: B. subtilis (isolate); test: Microdilution with resazurin, antibacterial; format: cell-based, Bacillus subtilis; conditions: Bacillus subtilis, antibiotics
# Description: as §1, §2, §3, §4, §5, §6
# [14] = test system: P. aeruginosa (isolate); test: Microdilution with resazurin, antibacterial; format: cell-based, Pseudomonas aeruginosa; conditions: Pseudomonas aeruginosa, antibiotics
# Description: as §1, §2, §3, §4, §5, §6
# [15] = test system: P. aeruginosa ATCC 27853; test: Microdilution with resazurin, antibacterial; format: cell-based, Pseudomonas aeruginosa; conditions: Pseudomonas aeruginosa, ATCC27853, antibiotics
# Description: as §1, §2, §3, §4, §5, §6
# [16] = Hydroxyl radical scavenging activity (2-deoxyribose); format: biochemical; conditions: mean ± SD, triplicate
# Description: All chemicals for the antioxidant activity test were purchased from Sigma Aldrich. All measurements were conducted in triplicate, and a Shimadzu UV-1800 spectrophotometer was used for all measurements during antioxidant activity experiments. The IC50 value was used for comparing different radical scavenging effects between investigated extracts, isolated compounds, and positive controls. The ability to inhibit non-site-specific peroxidation mediated by hydroxyl radicals for […], and XSH was determined using the method previously described in the literature. During the experiment, in a reaction mixture that contained 500 μL of 5.6 mM 2-deoxy-D-ribose in KH2PO4-NaOH buffer (50 mM, pH 7.4), 100 μL of 1.0 mM aqueous ascorbic acid, 100 μL of 1.0 mM H2O2, and 200 μL of premixed solution of 100 μM FeCl3 and […] EDTA (1:1 v/v), 100 μL of extract dissolved in water was added. The tubes were vigorously shaken, vortexed, and incubated for 30 min at 50 °C. […] The mixture was vortexed again and heated in a water bath for 30 min at 50 °C. […] Ac stands for absorbance of the control (which contains all reagents, except the tested extract or compound), and As is the absorbance of the sample.
# [17] = DPPH radical scavenging activity; format: biochemical; conditions: mean ± SD, triplicate
# Description: All chemicals for the antioxidant activity test were purchased from Sigma Aldrich. All measurements were conducted in triplicate, and a Shimadzu UV-1800 spectrophotometer was used for all measurements during antioxidant activity experiments. The IC50 value was used for comparing different radical scavenging effects between investigated extracts, isolated compounds, and positive controls. […] [71] with certain modifications. […] The solution was prepared ex tempore and stored in a tinted bottle in the refrigerator until the experiments were performed. […] The reaction mixture was vortexed and allowed to incubate in the dark for one hour, after which the absorbance was measured at 517 nm relative to the blank. […] Ac stands for absorbance of the control (which contains all reagents, except the tested extract or compound), and As is the absorbance of the sample.
# [18] = Superoxide anion radical scavenging activity (NBT/NADH/PMS); format: biochemical; conditions: mean ± SD, triplicate
# Description: All chemicals for the antioxidant activity test were purchased from Sigma Aldrich. All measurements were conducted in triplicate, and a Shimadzu UV-1800 spectrophotometer was used for all measurements during antioxidant activity experiments. The IC50 value was used for comparing different radical scavenging effects between investigated extracts, isolated compounds, and positive controls. […] [75] with modifications. […] To initiate the reaction, 0.1 mL of phenazine methosulfate (PMS) solution ([…] in 0.1 M phosphate buffer at pH 7.4) was added to each tube. The mixture was incubated at room temperature for 5 min, and then the absorbance was measured at 560 nm relative to the blank. Ascorbic acid, gallic acid, and Trolox were used as positive controls, and a decrease in absorbance indicated increased superoxide anion radical scavenging activity. […] Ac stands for absorbance of the control (which contains all reagents, except the tested extract or compound), and As is the absorbance of the sample.
# [19] = test system: C. albicans (isolate); test: Microdilution with resazurin, antifungal; format: cell-based, Candida albicans; conditions: Candida albicans, antimycotics
# Description: as §1, §2, §3, §4, §5, §6
# [20] = test system: C. albicans ATCC 10231; test: Microdilution with resazurin, antifungal; format: cell-based, Candida albicans; conditions: Candida albicans, ATCC10231, antimycotics
# Description: as §1, §2, §3, §4, §5, §6
# [21] = test system: S. cerevisiae (isolate); test: Microdilution with resazurin, antifungal; format: cell-based, Saccharomyces cerevisiae; conditions: Saccharomyces cerevisiae, antimycotics
# Description: as §1, §2, §3
# as §4, with “[76]. […]” for “[76].”
# Minimum microbicidal concentrations were determined by plating 10 μL of samples from wells where no indicator color change or no mycelia growth was recorded on a nutrient agar medium. […]
# [22] = test system: A. niger ATCC 16888; test: Microdilution with resazurin, antifungal; format: cell-based, Aspergillus niger; conditions: Aspergillus niger, ATCC16888, antimycotics
# Description: as §1, §2, §3, §4, §5, §6
structure (smiles),measurement,setting,value
"CC1(C)S[C@@H]2[C@H](NC(=O)[C@H](N)c3ccccc3)C(=O)N2[C@H]1C(=O)O [AMP, ampicillin]",MBC,[1]; read-out: MBC,1 µg/mL
same,MIC,[1]; read-out: MIC,1 µg/mL
same,MBC,[2]; read-out: MBC,0.75 µg/mL
same,MIC,[2]; read-out: MIC,0.25 µg/mL
same,MBC,[3]; read-out: MBC,< 0.06 µg/mL
same,MIC,[3]; read-out: MIC,< 0.06 µg/mL
same,MBC,[4]; read-out: MBC,> 128 µg/mL
same,MIC,[4]; read-out: MIC,> 128 µg/mL
same,MBC,[5]; read-out: MBC,4 µg/mL
same,MIC,[5]; read-out: MIC,4 µg/mL
same,MBC,[6]; read-out: MBC,6 µg/mL
same,MIC,[6]; read-out: MIC,4 µg/mL
same,MBC,[7]; read-out: MBC,> 128 µg/mL
same,MIC,[7]; read-out: MIC,> 128 µg/mL
same,MBC,[8]; read-out: MBC,> 128 µg/mL
same,MIC,[8]; read-out: MIC,> 128 µg/mL
same,MBC,[9]; read-out: MBC,1.2 µg/mL
same,MIC,[9]; read-out: MIC,2.1 µg/mL
same,MBC,[10]; read-out: MBC,0.5 µg/mL
same,MIC,[10]; read-out: MIC,0.37 µg/mL
same,MBC,[11]; read-out: MBC,2 µg/mL
same,MIC,[11]; read-out: MIC,2 µg/mL
same,MBC,[12]; read-out: MBC,4 µg/mL
same,MIC,[12]; read-out: MIC,3 µg/mL
same,MBC,[13]; read-out: MBC,128 µg/mL
same,MIC,[13]; read-out: MIC,16 µg/mL
same,MBC,[14]; read-out: MBC,> 128 µg/mL
same,MIC,[14]; read-out: MIC,> 128 µg/mL
same,MBC,[15]; read-out: MBC,> 128 µg/mL
same,MIC,[15]; read-out: MIC,> 128 µg/mL
"O=C1O[C@H]([C@@H](O)CO)C(O)=C1O [Ascorbic acid, ascorbic acid]",Hydroxyl Radical Scavenging Activity (IC50),[16],"155.91 ± 0.64 ^a,d,e µg/mL"
same,DPPH Radical Scavenging Activity (IC50),[17],"6.31 ± 0.78 ^a,b,c,d µg/mL"
same,Superoxide Anion Radical Scavenging Activity (IC50),[18],"105.62 ± 0.84 ^c,d,e,f µg/mL"
"OC(Cn1cncn1)(Cn1cncn1)c1ccc(F)cc1F [FC, fluconazole]",MFC,[19]; read-out: MFC,62.5 µg/mL
same,MIC,[19]; read-out: MIC,62.5 µg/mL
same,MFC,[20]; read-out: MFC,31.2 µg/mL
same,MIC,[20]; read-out: MIC,31.2 µg/mL
same,MFC,[21]; read-out: MFC,7.81 µg/mL
same,MIC,[21]; read-out: MIC,7.81 µg/mL
same,MFC,[22]; read-out: MFC,500 µg/mL
same,MIC,[22]; read-out: MIC,250 µg/mL
"O=C(O)c1cc(O)c(O)c(O)c1 [Gallic acid, gallic acid]",Hydroxyl Radical Scavenging Activity (IC50),[16],"45.12 ± 0.51 ^a,b,c,d,e µg/mL"
same,DPPH Radical Scavenging Activity (IC50),[17],"3.72 ± 0.65 ^a,b,c,d,e µg/mL"
same,Superoxide Anion Radical Scavenging Activity (IC50),[18],"68.55 ± 0.45 ^a,b,c,d,e µg/mL"
"Cc1c(C)c2c(c(C)c1O)CCC(C)(C(=O)O)O2 (centres unmarked) [Trolox, 6-hydroxy-2,5,7,8-tetramethylchroman-2-carboxylic acid]",Hydroxyl Radical Scavenging Activity (IC50),[16],"131.45 ± 0.56 ^c,e µg/mL"
same,DPPH Radical Scavenging Activity (IC50),[17],"10.79 ± 0.83 ^a,b,c,d,e µg/mL"
same,Superoxide Anion Radical Scavenging Activity (IC50),[18],"135.14 ± 0.88 ^a,b,d,e,f µg/mL"
